The target in one assay is human PDE2A1 (Homo sapiens (Human), UniProt O00408). Kind of assay: PDE selectivity IMAP FP assay, human PDE2A1. The format is biochemical. Conditions: Human PDE2. Put shortly:
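Compound titrations run against PDE2 in Tris HCl pH 7.2 buffer with MgCl2 and DTT for 60 min at room temperature, using 50 nM FAM-cAMP plus 1000 nM cGMP and enzyme giving 20% conversion.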

In the next assay the target is Rhesus PDE2A3 (Macaca mulatta, UniProt B3VTJ2). Kind of assay: PDE2 fluorescence polarization (IMAP FP) assay, rhesus PDE2A3. The format is biochemical, rhesus macaque.
Setting [1] is: Lab B, read-out: Human PDE2 Ki (nM) Lab B.
Setting [2] is: Lab B, read-out: Rhesus PDE2 Ki (nM) Lab B.
Where [3] appears, read: Lab A, read-out: Human PDE2 Ki (nM) Lab A.
Where [4] appears, read: Lab A, read-out: Rhesus PDE2 Ki (nM) Lab A.

Like-named read-outs stand apart in the source and are kept apart here.

human PDE2A1, sequence (O00408 other isoform, or with tags, fused parts or gaps): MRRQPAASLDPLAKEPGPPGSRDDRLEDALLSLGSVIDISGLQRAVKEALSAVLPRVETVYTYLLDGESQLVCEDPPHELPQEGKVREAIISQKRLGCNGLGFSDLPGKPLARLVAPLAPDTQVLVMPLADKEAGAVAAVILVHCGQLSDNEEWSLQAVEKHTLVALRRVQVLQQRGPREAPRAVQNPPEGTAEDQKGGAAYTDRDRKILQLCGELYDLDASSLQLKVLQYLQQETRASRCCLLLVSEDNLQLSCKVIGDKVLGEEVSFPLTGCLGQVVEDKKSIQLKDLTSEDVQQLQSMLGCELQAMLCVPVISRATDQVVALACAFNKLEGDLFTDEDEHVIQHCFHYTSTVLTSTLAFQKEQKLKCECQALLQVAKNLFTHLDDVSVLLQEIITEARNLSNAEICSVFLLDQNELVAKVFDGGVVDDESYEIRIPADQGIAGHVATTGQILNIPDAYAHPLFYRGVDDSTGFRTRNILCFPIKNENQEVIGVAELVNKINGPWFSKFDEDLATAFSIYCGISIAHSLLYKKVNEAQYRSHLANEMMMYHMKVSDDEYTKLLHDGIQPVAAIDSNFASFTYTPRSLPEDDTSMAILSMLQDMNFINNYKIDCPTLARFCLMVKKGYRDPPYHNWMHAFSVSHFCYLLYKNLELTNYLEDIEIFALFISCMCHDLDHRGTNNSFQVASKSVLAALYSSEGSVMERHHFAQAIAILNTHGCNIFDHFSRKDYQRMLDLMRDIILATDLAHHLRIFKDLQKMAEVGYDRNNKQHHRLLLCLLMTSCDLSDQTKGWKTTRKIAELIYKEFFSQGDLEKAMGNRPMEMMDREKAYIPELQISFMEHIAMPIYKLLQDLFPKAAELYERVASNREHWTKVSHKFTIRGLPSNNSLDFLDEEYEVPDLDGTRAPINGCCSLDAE
Rhesus PDE2A3, sequence (B3VTJ2 1-941): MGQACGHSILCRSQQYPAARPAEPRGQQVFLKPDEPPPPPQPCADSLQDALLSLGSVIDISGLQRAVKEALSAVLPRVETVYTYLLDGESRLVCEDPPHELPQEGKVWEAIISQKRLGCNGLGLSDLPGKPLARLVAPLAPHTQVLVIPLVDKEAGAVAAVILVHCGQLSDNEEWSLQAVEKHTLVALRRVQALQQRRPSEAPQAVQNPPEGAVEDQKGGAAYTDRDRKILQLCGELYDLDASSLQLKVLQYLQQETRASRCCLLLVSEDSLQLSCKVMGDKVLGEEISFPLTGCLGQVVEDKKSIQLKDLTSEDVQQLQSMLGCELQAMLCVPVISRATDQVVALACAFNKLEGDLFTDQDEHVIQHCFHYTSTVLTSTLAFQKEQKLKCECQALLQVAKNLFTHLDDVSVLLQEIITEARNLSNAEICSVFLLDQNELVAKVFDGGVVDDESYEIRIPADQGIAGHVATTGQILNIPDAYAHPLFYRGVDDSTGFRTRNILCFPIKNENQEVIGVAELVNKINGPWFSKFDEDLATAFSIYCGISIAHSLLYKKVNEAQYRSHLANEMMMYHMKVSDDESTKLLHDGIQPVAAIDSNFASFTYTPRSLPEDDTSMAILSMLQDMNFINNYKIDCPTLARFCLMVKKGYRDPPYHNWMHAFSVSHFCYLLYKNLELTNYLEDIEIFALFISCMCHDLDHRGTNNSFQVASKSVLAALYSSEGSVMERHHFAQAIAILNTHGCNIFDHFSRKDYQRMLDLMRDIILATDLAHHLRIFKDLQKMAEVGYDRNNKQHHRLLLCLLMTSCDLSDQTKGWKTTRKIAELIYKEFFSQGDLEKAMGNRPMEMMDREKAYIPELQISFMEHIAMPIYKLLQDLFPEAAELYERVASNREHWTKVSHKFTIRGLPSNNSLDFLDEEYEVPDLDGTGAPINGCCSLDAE

Regarding `CC(c1ccc(C(F)(F)F)c(F)c1)n1nc(CO)c2c(=O)[nH]c(N(C)C)nc21` (single isomer, unassigned) [Example 69, (S)- or (R)-6-(Dimethylamino)-1-(1-(3-fluoro-4-(trifluoromethyl)phenyl)ethyl)-3-(hydroxymethyl)-1H-pyrazolo[3,4-d]pyrimidin-4(5H)-one], the inhibition constant Ki at human PDE2A1 (setting [1]) and on Rhesus PDE2A3 (setting [2]) was 0.27 nM throughout.

Turning to `CN(C)c1nc2c(c(CF)nn2C(c2ccc(C(F)(F)F)cc2)C2CC2)c(=O)[nH]1` (single isomer, unassigned) [Example 179, (S)- or (R)-1-(Cyclopropyl(4-(trifluoromethyl)phenyl)methyl)-6-(dimethylamino)-3-(fluoromethyl)-1H-pyrazolo[3,4-d]pyrimidin-4(5H)-one], the Ki on human PDE2A1 (setting [1]) and on Rhesus PDE2A3 (setting [2]) was 0.072 nM in each case.

Turning to `CN(C)c1nc2c(c(CO)nn2C(c2ccc(C(F)F)c(F)c2)C2CC2)c(=O)[nH]1` (single isomer, unassigned) [Example 152, (R)- or (S)-1-(Cyclopropyl(4-(difluoromethyl)-3-fluorophenyl)methyl)-6-(dimethylamino)-3-(hydroxymethyl)-1H-pyrazolo[3,4-d]pyrimidin-4(5H)-one], the inhibition constant (Ki) (commonly the equilibrium dissociation constant of an inhibitor or competing ligand from its target) at human PDE2A1 (setting [1]) stood at 0.57 nM; on Rhesus PDE2A3 (setting [2]), 0.97 nM.

For the compound `C[C@@H](c1ccc(C(F)(F)F)cc1)n1nc(CO)c2c(=O)[nH]c(N3CCCC3)nc21` [Example 156, 3-(Hydroxymethyl)-6-pyrrolidin-1-yl-1-{(1S)-1-[4-(trifluoromethyl)phenyl]ethyl}-1,5-dihydro-4H-pyrazolo[3,4-d]pyrimidin-4-one], the Ki came out at 0.5 nM on human PDE2A1 (setting [1]) and 0.47 nM at Rhesus PDE2A3 (setting [2]).

Take `CC(c1ccc(S(F)(F)(F)(F)F)cc1)n1nc(CC(F)(F)F)c2c(=O)[nH]c(O)nc21` (racemic) [Example 231, 6-Hydroxy-3-(2,2,2-trifluoroethyl)-1-(1-(4-(pentafluorosulfanyl)phenyl)ethyl)-1H-pyrazolo[3,4-d]pyrimidin-4(5H)-one]: the values for the Ki on human PDE2A1 (setting [1]) and on Rhesus PDE2A3 (setting [2]) were 18 nM and 25 nM, respectively.

On to `CCC(c1ccc(C(C)(F)F)cc1)n1nc(CO)c2c(=O)[nH]c(N(C)C)nc21` (single isomer, unassigned) [Example 137, (S)- or (R)-1-(1-(4-(1,1-Difluoroethyl)phenyl)propyl)-6-(dimethylamino)-3-(hydroxymethyl)-1H-pyrazolo[3,4-d]pyrimidin-4(5H)-one], for which the Ki on human PDE2A1 (setting [1]) was 0.073 nM; on Rhesus PDE2A3 (setting [2]), 0.14 nM.

With `CC(c1ccc(C(F)F)c(F)c1)n1nc(CO)c2c(=O)[nH]c(N(C)C)nc21` (single isomer, unassigned) [Example 105, (S)- or (R)-1-(1-(4-(Difluoromethyl)-3-fluorophenyl)ethyl)-6-(dimethylamino)-3-(hydroxymethyl)-1H-pyrazolo[3,4-d]pyrimidin-4(5H)-one], the inhibition constant Ki on human PDE2A1 (setting [1]) was 1.1 nM; at Rhesus PDE2A3 (setting [2]) it was 1.6 nM.

In the case of `Cc1nn(C(C)c2ccc(C(F)(F)F)cc2)c2nc(N3CCCC3)[nH]c(=O)c12` (stereo not shown) [Example 268, 3-Methyl-6-pyrrolidin-1-yl-1-{1-[4-(trifluoromethyl)phenyl]ethyl}-1,5-dihydro-4H-pyrazolo[3,4-d]pyrimidin-4-one], the inhibition constant (Ki) stood at 5.6 nM at human PDE2A1 (setting [3]) and 8 nM on Rhesus PDE2A3 (setting [4]).

Turning to `CC(c1ccc(C(C)(F)F)cc1F)n1nc(CO)c2c(=O)[nH]c(N(C)C)nc21` (single isomer, unassigned) [Example 108, (R)- or (S)-1-(1-(4-(1,1-DiHuoroethyl)-2-fluoroplienyl)ethyl)-6-(dimethylamino)-3-(hydroxymethyl)-1H-pyrazolo[3,4-d]pyrimidin-4(5H)-one], the Ki came out at 0.23 nM on human PDE2A1 (setting [1]) and 0.18 nM on Rhesus PDE2A3 (setting [2]).

With `CC(c1ccc(C(F)(F)F)cc1F)n1nc(CF)c2c(=O)[nH]c(N(C)C)nc21` (single isomer, unassigned) [Example 186, (R)- or (S)-6-(Dimethylamino)-1-(1-(2-fluoro-4-(trifluoromethyl)phenyl)ethyl)-3-(fluoromethyl)-1H-pyrazolo[3,4-d]pyrimidin-4(5H)-one], the Ki turned out to be 0.13 nM on human PDE2A1 (setting [1]) and 0.14 nM at Rhesus PDE2A3 (setting [2]).

Take `CC(C)C(c1ccc(C(F)(F)F)cc1)n1nc(CO)c2c(=O)[nH]c(N(C)C)nc21` (single isomer, unassigned) [Example 65, (S)- or (R)-6-Dimethylamino)-3-(hydroxymethyl)-1-(2-methyl-1-(4-(trifluoromethyl)phenyl)propyl)-1H-pyrazolo[3,4-d]pyrimidin-4(5H)-one]: the Ki at human PDE2A1 (setting [1]) was 0.069 nM; at Rhesus PDE2A3 (setting [2]), 0.076 nM.

Regarding `C[C@@H](c1ccc(C(F)(F)F)cc1)n1nc(CF)c2c(=O)[nH]c(N3CCCC3)nc21` [Example 226, 3-(Fluoromethyl)-6-pyrrolidin-1-yl-1-{(1S)-1-[4-(trifluoromethyl)phenyl]ethyl}-1,5-dihydro-4H-pyrazolo[3,4-d]pyrimidin-4-one], the results for the Ki at human PDE2A1 (setting [1]) and on Rhesus PDE2A3 (setting [2]) were 0.22 nM and 0.26 nM, respectively.

Regarding `CN(C)c1nc2c(c(CO)nn2C(c2ccc(CC(F)(F)F)c(F)c2)C2CC2)c(=O)[nH]1` (single isomer, unassigned) [Example 94, (R)- or (S)-1-(Cyclopropyl(3-fluoro-4-(2,2,2-trifluoroethyl)phenyl)methyl)-6-(dimethylamino)-3-(hydroxymethyl)-1H-pyrazolo[3,4-d]pyrimidin-4(5H)-one], the inhibitory constant (Ki) at human PDE2A1 (setting [1]) is 0.14 nM; on Rhesus PDE2A3 (setting [2]) it was 0.15 nM.

Take `CN(C)c1nc2c(c(CO)nn2C(c2ccc(OC(F)F)c(F)c2)C2CC2)c(=O)[nH]1` (single isomer, unassigned) [Example 123, (S)- or (R)-1-(Cyclopropyl(4-(difluoromethoxy)-3-fluorophenyl)methyl)-6-(dimethylamino)-3-(hydroxymethyl)-1H-pyrazolo[3,4-d]pyrimidin-4(5H)-one]: the Ki turned out to be 0.6 nM at human PDE2A1 (setting [1]) and 0.61 nM on Rhesus PDE2A3 (setting [2]).

As for `CN(C)c1nc2c(c(CF)nn2C(c2ccc(C(F)(F)F)cc2F)C2CC2)c(=O)[nH]1` (single isomer, unassigned) [Example 202, (R)- or (S)-1-(Cyclopropyl(2-fluoro-4-(trifluoromethyl)phenyl)methyl)-6-(dimethylamino)-3-(fluoromethyl)-1H-pyrazolo[3,4-d]pyrimidin-4(5H)-one], the Ki came to 0.042 nM at human PDE2A1 (setting [1]) and 0.058 nM at Rhesus PDE2A3 (setting [2]).

Turning to `C[C@@H](c1ccc(C(F)(F)F)cc1)n1nc(CF)c2c(=O)[nH]c(N3CCC3)nc21` [Example 225, 6-Azetidin-1-yl-3-(fluoromethyl)-1-{(1S)-1-[4-(trifluoromethyl)phenyl]ethyl}-1,5-dihydro-4H-pyrazolo[3,4-d]pyrimidin-4-one], the inhibitory constant (Ki) at human PDE2A1 (setting [1]) amounted to 0.41 nM; on Rhesus PDE2A3 (setting [2]), 0.4 nM.

As for `CC(C)C(c1ccc(C(F)F)cc1)n1nc(CO)c2c(=O)[nH]c(N(C)C)nc21` (single isomer, unassigned) [Example 91, (S)- or (R)-1-(1-(4-(Difluoromethyl)phenyl)-2-methylpropyl)-6-(dimethylamino)-3-(hydroxymethyl)-1H-pyrazolo[3,4-d]pyrimidin-4(5H)-one], the Ki at human PDE2A1 (setting [1]) and at Rhesus PDE2A3 (setting [2]) was 0.18 nM each time.

For `CC(c1ccc(C(F)F)cc1)n1nc(CF)c2c(=O)[nH]c(N(C)C)nc21` (single isomer, unassigned) [Example 191, (S)- or (R)-1-(1-(4-(Difluoromethyl)phenyl)ethyl)-6-(dimethylamino)-3-(fluoromethyl)-1H-pyrazolo[3,4-d]pyrimidin-4(5H)-one], the results for the Ki at human PDE2A1 (setting [1]) and at Rhesus PDE2A3 (setting [2]) were 0.38 nM and 0.42 nM, respectively.

With `CC(c1ccc(C(F)(F)F)cc1)n1nc(CF)c2c(=O)[nH]c(O)nc21` (stereo not shown) [Example 41, 3-(Fluoromethyl)-6-hydroxy-1-{1-[4-(trifluoromethyl)phenyl]ethyl}-1,5-dihydro-4H-pyrazolo[3,4-d]pyrimidin-4-one], the inhibition constant Ki on human PDE2A1 (setting [3]) was found to be 2.3 nM; at Rhesus PDE2A3 (setting [4]), 3.5 nM.

Take `CC(c1ccc(OC(F)(F)F)c(F)c1)n1nc(CC#N)c2c(=O)[nH]c(O)nc21` (single isomer, unassigned) [Example 299, (R)- or (S)-2-(1-(1-(3-Fluoro-4-(trifluoromethoxy)phenyl)ethyl)-6-hydroxy-4-oxo-4,5-dihydro-1H-pyrazolo[3,4-d]pyrimidin-3-yl)acetonitrile]: the inhibitory constant (Ki) at human PDE2A1 (setting [1]) was found to be 17 nM; at Rhesus PDE2A3 (setting [2]) it was 21 nM.

With `CC(C)C(c1ccc(OC(F)F)cc1)n1nc(CF)c2c(=O)[nH]c(N(C)C)nc21` (single isomer, unassigned) [Example 185, (S)- or (R)-1-(1-(4-(Difluoromethoxy)phenyl)-2-methylpropyl)-6-(dimethylamino)-3-(fluoromethyl)-1H-pyrazolo[3,4-d]pyrimidin-4(5H)-one], the Ki at human PDE2A1 (setting [1]) was found to be 0.12 nM; at Rhesus PDE2A3 (setting [2]), 0.16 nM.

Consider `CC(C)C(c1ccc(C(C)(F)F)c(F)c1)n1nc(CF)c2c(=O)[nH]c(N(C)C)nc21` (single isomer, unassigned) [Example 218, (R)- or (S)-1-(1-(4-(1,1-Difluoroethyl)-3-fluorophenyl)-2-methylpropyl)-6-(dimethylamino)-3-(fluoromethyl)-1H-pyrazolo[3,4-d]pyrimidin-4(5H)-one], for which the inhibitory constant (Ki) on human PDE2A1 (setting [1]) was 0.16 nM; at Rhesus PDE2A3 (setting [2]), 0.21 nM.

For `CC(c1ccc(C2CC2)cc1)n1nc(CO)c2c(=O)[nH]c(O)nc21` (stereo not shown) [Example 6, 1-(1-(4-Cyclopropylphenyl)ethyl)-6-hydroxy-3-(hydroxymethyl)-1H-pyrazolo[3,4-d]pyrimidin-4(5H)-one], the inhibition constant Ki at human PDE2A1 (setting [3]) amounted to 50 nM; on Rhesus PDE2A3 (setting [4]), 78 nM.

(Values after patent publication US10174037B2, “Dihydropyrazolopyrimidinone compounds as PDE2 inhibitors” (Merck Sharp & Dohme Corp., priority 2015, dated 2019).)
